From patent US20160166676A1 (priority 2013, published 2016) come the findings set out here.

One assay deals with CTLL-2 cells. Format: cell-based.
Assay [1] concerns the target STING deletion mutant DN5 (162-N) (Homo sapiens, UniProt Q86WV6). Type of assay: binding.

STING deletion mutant DN5 (162-N), sequence (Q86WV6 162-379, stated change not applied): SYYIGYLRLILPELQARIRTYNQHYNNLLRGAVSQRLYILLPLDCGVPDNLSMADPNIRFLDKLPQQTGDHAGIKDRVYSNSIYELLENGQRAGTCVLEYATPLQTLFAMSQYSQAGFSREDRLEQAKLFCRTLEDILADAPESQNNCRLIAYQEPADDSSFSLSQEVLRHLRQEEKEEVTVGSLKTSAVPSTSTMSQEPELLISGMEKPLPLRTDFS

Regarding “GLFGAIAGFIENGWEGCGGEKEKEK [IN F#2 dimer]”, in the assay with CTLL-2 cells, the “proliferation of CTLL-2 cells” value is given as “inhibits the proliferation of CTLL-2 cells”. The “pulldown of STING deletion mutant DN5 (162-N) by biotinylated peptide” value in assay [1] was “readily pulled down”.
